# Assay results reported in patent US20230407243A1, “GENETIC PLATFORM TO INVESTIGATE THE FUNCTIONS OF BACTERIAL DRUG EFFLUX PUMPS” (priority 2022, published 2023).
# Like-named read-outs stand apart in the source and are kept apart here.
# Experiments:
# Type in all cases: cell-based, Escherichia coli
# [1] = tested on: EKO-35-Pore; assay: MIC susceptibility profiling, porinated strain; details: for Fold changes of MICs: EKO-35-Pore compared to EKO-35-Pore (reference); for MIC: Escherichia coli, technical duplicate
# In short: (§1)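 MIC values come from background-corrected OD600 readings (pre-incubation OD subtracted) after 18 h at 37 °C and 900 rpm in MHB II. Compounds were tested in duplicate as 2-fold dilutions. The inoculum came from 18 h LB cultures adjusted to OD600 ~1.0 and diluted 1/2000, and the pore-bearing strains were vancomycin-checked beforehand.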
# [2] = tested on: ΔtolC-Pore; assay: microbe, parasite or virus in culture; details: for MIC: Escherichia coli, 18 h, read-out: Minimum inhibitory concentration, ΔtolC-Pore; for Minimum inhibitory concentration (MIC), Pore ΔtolC: Table 10, with pore, technical duplicate
# In short: as §1
# [3] = tested on: wild-type (WT) K-12-Pore; assay: microbe, parasite or virus in culture; details: Escherichia coli, technical duplicate
# In short: as §1
# [4] = tested on: EKO-35 araC::acrEF Pore; assay: MIC susceptibility profiling, porinated efflux platform; details: for Fold changes of MICs: EKO-35 araC::acrEF Pore compared to EKO-35-Pore; for MIC: Escherichia coli, Table 14A, porinated, technical duplicate, read-out: Minimum inhibitory concentration, EKO-35 araC::acrEF Pore
# In short: as §1
# [5] = tested on: EKO-35 araC::acrB Pore; assay: as above; details: for Fold changes of MICs: EKO-35 araC::acr-B Pore compared to EKO-35-Pore
# In short: as §1
# [6] = tested on: EKO-35 araC::acrBD408A Pore; assay: as above; details: for Fold changes of MICs: EKO-35 araC::acrBD408A Pore compared to EKO-35-Pore; for MIC: Escherichia coli, EKO-35 araC::acrBD408A Pore, technical duplicate, read-out: Minimum inhibitory concentration
# In short: as §1
# [7] = tested on: EKO-35 araC::emrKY Pore; assay: as above; details: for Fold changes of MICs: EKO-35 araC::emrKY Pore compared to EKO-35-Pore; for MIC: Escherichia coli, EKO-35 araC::emrKY Pore, technical duplicate, read-out: Minimum inhibitory concentration
# In short: as §1
# [8] = tested on: EKO-35 araC::mdtBC Pore; assay: as above; details: for Fold changes of MICs: EKO-35 araC::mdtBC Pore compared to EKO-35-Pore; for MIC: Escherichia coli, EKO-35 araC::mdtBC Pore, technical duplicate, read-out: Minimum inhibitory concentration
# In short: as §1
# [9] = tested on: EKO-35 araC::macAB Pore; assay: as above; details: for Fold changes of MICs: EKO-35 araC::macAB Pore compared to EKO-35-Pore; for MIC: Escherichia coli, EKO-35 araC::macAB Pore, technical duplicate, read-out: Minimum inhibitory concentration
# In short: as §1
# [10] = tested on: EKO-35 araC::acrD Pore; assay: as above; details: for Fold changes of MICs: EKO-35 araC::acrD Pore compared to EKO-35-Pore; for MIC: Escherichia coli, Table 14A, porinated, technical duplicate, read-out: Minimum inhibitory concentration, EKO-35 araC::acrD Pore
# In short: as §1
# [11] = tested on: EKO-35 araC::emrAB Pore; assay: as above; details: for Fold changes of MICs: EKO-35 araC::emrAB Pore compared to EKO-35-Pore; for MIC: Escherichia coli, EKO-35 araC::emrAB Pore, technical duplicate, read-out: Minimum inhibitory concentration
# In short: as §1
# [12] = tested on: EKO-35 araC::mdtEF Pore; assay: as above; details: for Fold changes of MICs: EKO-35 araC::mdtEF Pore compared to EKO-35-Pore; for MIC: Escherichia coli, Table 14A, porinated, technical duplicate, read-out: Minimum inhibitory concentration, EKO-35 araC::mdtEF Pore
# In short: as §1
# [13] = tested on: EKO-35 araC::mexCD Pore; assay: as above; details: for Fold changes of MICs: EKO-35 araC::mexCD Pore compared to EKO-35-Pore; for MIC: Escherichia coli, EKO-35 araC::mexCD Pore, technical duplicate, read-out: Minimum inhibitory concentration
# In short: as §1
# [14] = tested on: E. coli EKO-35; assay: microbe, parasite or virus in culture; details: for Fold change of MICs: EKO-35 compared to EKO-35 (reference); for MIC: Escherichia coli, EKO35, technical duplicate
# In short: (§2)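 Broth MIC in cation-adjusted Mueller-Hinton (MHB II) following twofold compound titration in duplicate. Bacteria were prepared at OD600 ~1.0 in PBS and diluted 1/2000. Endpoint OD600 after 18 h at 37 °C was corrected using the pre-incubation reading.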
# [15] = tested on: E. coli ΔtolC; assay: microbe, parasite or virus in culture; details: for MIC: Escherichia coli, 18 h, read-out: Minimum Inhibitory Concentration, ΔtolC; for Minimum inhibitory concentration (MIC), ΔtolC: without pore, technical duplicate
# In short: as §2
# [16] = tested on: wild-type E. coli K-12 str. BW25113; assay: microbe, parasite or virus in culture; details: Escherichia coli, BW25113, technical duplicate
# In short: as §2
# [17] = tested on: EKO-35 araC::acrEF; assay: MIC susceptibility profiling, efflux platform; details: for Fold change of MICs: EKO-35 araC::acrEF compared to EKO-35; for MIC: Escherichia coli, Table 13A, non-porinated, technical duplicate, read-out: Minimum Inhibitory Concentration, EKO-35 araC::acrEF
# In short: as §2
# [18] = tested on: EKO-35 araC::macAB; assay: MIC susceptibility profiling, efflux platform; details: for Fold change of MICs: EKO-35 araC::macAB compared to EKO-35; for MIC: Escherichia coli, Table 13B, non-porinated, technical duplicate, read-out: Minimum Inhibitory Concentration, EKO-35 araC::macAB
# In short: as §2
# [19] = tested on: EKO-35 araC::emrAB; assay: MIC susceptibility profiling, efflux platform; details: for Fold change of MICs: EKO-35 araC::emrAB compared to EKO-35; for MIC: Escherichia coli, Table 13B, non-porinated, technical duplicate, read-out: Minimum Inhibitory Concentration, EKO-35 araC::emrAB
# In short: as §2
# [20] = Table 10, with pore, read-out: Minimum inhibitory concentration (MIC), Pore EKO-35
# [21] = Table 14A, porinated, read-out: Minimum inhibitory concentration, EKO-35-Pore
# [22] = Table 10, with pore, read-out: Minimum inhibitory concentration (MIC), Pore K-12
# [23] = Table 14A, porinated, read-out: Minimum inhibitory concentration, K-12 (WT)-Pore
# [24] = Table 10, without pore, read-out: Minimum inhibitory concentration (MIC), EKO-35
# [25] = Table 13A, non-porinated, read-out: Minimum Inhibitory Concentration, EKO-35
# [26] = Table 10, without pore, read-out: Minimum inhibitory concentration (MIC), K-12
# [27] = Table 13A, non-porinated, read-out: Minimum Inhibitory Concentration, K-12
SMILES,"MIC [1, 20] [mg/L]","MIC [1, 21] [mg/L]",MIC [2] [mg/L],"Minimum inhibitory concentration (MIC), Pore ΔtolC [2] [mg/L]","MIC [3, 22] [mg/L]","MIC [3, 23] [mg/L]",MIC [4] [mg/L],MIC [6] [mg/L],MIC [7] [mg/L],MIC [8] [mg/L],MIC [9] [mg/L],MIC [10] [mg/L],MIC [11] [mg/L],MIC [13] [mg/L],"MIC [14, 24] [mg/L]","MIC [14, 25] [mg/L]",MIC [15] [mg/L],"Minimum inhibitory concentration (MIC), ΔtolC ([15]; Table 10) [mg/L]","MIC [16, 26] [mg/L]","MIC [16, 27] [mg/L]",also measured
CO[C@@H]1[C@@H](OC(N)=O)[C@@H](O)[C@H](Oc2ccc3c(O)c(NC(=O)c4ccc(O)c(CC=C(C)C)c4)c(=O)oc3c2C)OC1(C)C [novobiocin],0.781,0.781,0.391,0.391,12.5,12.5,25,0.391,0.781,3.12,0.781,25,6.25,3.12,3.12,3.12,0.781,0.781,200,200,"Fold changes of MICs [1]: 1 fold; Fold changes of MICs [4]: 32 fold; Fold changes of MICs [5]: 512 fold; Fold changes of MICs [6]: 1 fold; Fold changes of MICs [7]: 1 fold; Fold changes of MICs [8]: 4 fold; Fold changes of MICs [9]: 1 fold; Fold changes of MICs [10]: 32 fold; Fold changes of MICs [11]: 8 fold; Fold changes of MICs [12]: 16 fold; Fold changes of MICs [13]: 4 fold; Fold change of MICs [14]: 1 fold; fold difference in MIC between EKO-35 and ΔtolC ([15]; ΔtolC mutant more susceptible than EKO-35, Table 10): 4 fold; Fold change of MICs [17]: 128 fold; Fold change of MICs [18]: 1 fold; MIC [18]: 1.56 mg/L; Fold change of MICs [19]: 8 fold; MIC [19]: 25 mg/L"
Cc1onc(-c2ccccc2)c1C(=O)N[C@@H]1C(=O)N2[C@@H]1SC(C)(C)[C@@H]2C(=O)O [oxacillin],0.313,0.313,0.313,0.313,40,40,5,0.156,0.313,0.313,0.313,20,0.313,2.5,0.625,0.625,0.625,0.625,160,160,"MIC ([5]; Escherichia coli, Table 14A, porinated, technical duplicate, read-out: Minimum inhibitory concentration, EKO-35 araC::acrB Pore): 20 mg/L; MIC [12]: 1.25 mg/L; MIC [17]: 160 mg/L; MIC [18]: 0.625 mg/L; MIC [19]: 1.25 mg/L"
COc1ccc(C[C@H](N)C(=O)N[C@H]2[C@@H](O)[C@H](n3cnc4c(N(C)C)ncnc43)O[C@@H]2CO)cc1 [puromycin],0.781,0.781,1.56,1.563,50,50,3.12,0.781,1.56,0.781,0.781,0.781,0.781,1.56,1.56,1.56,3.12,3.125,50,50,"Fold changes of MICs [1]: 1 fold; Fold changes of MICs [4]: 4 fold; Fold changes of MICs [5]: 64 fold; Fold changes of MICs [6]: 1 fold; Fold changes of MICs [7]: 2 fold; Fold changes of MICs [8]: 1 fold; Fold changes of MICs [9]: 1 fold; Fold changes of MICs [10]: 1 fold; Fold changes of MICs [11]: 1 fold; Fold changes of MICs [12]: 2 fold; MIC [12]: 1.56 mg/L; Fold changes of MICs [13]: 2 fold; efflux pump-mediated resistance vs EKO-35-Pore ([13]; MexCD, OM compromised): no longer associated MexCD with resistance; Fold change of MICs [14]: 1 fold; Fold change of MICs [17]: 4 fold; MIC [17]: 6.25 mg/L; Fold change of MICs [18]: 1 fold; MIC [18]: 1.56 mg/L; Fold change of MICs [19]: 1 fold; MIC [19]: 1.56 mg/L"
